Assay results taken from publication PMC9187652, “Investigating the ligand agonism and antagonism at the D2long receptor by dynamic mass redistribution” (Scientific Reports, 2022).
Like-named read-outs stand apart in the source and are kept apart here. Marks after values point to notes of the source that are not given here. *1 amine or outer side, *2 acyl side, *3 side chain or, on linkers, in order; H or OH if unused. Where a SMILES comes first, the peptide text is derived from it. Bridges are numbered along the chain shown (N, C = ends). [ ]: non-standard residue; d: D form. The star is where a group is joined. Leu(3R-OH,Nα-propionyl) = CCC(=O)N[C@H](C(=O)*)[C@H](O)C(C)C; X1 = CC(C)[C@@H](O[*:3])[C@H](N[*:1])C(=O)[*:2]; NMeT = CN[C@H](C(=O)O)[C@@H](C)O; dPhLac = O=C(O)[C@H](O)Cc1ccccc1; NMeA = CN[C@@H](C)C(=O)O; NMeDha = C=C(NC)C(=O)O

Legend:
CHO-K1 hD2longR cells = assay type: cell-based, human
[1] = target: T1, human dopamine D2long receptor (Homo sapiens, UniProt P14416)
[2] = test system: untransfected CHO-K1 cells; experiment: DMR off-target test in untransfected CHO-K1 cells
hD2longR [3] = target: T2, hD2longR (Homo sapiens, UniProt P14416); assay type: cell-based
D2R = details: cited from earlier work; for Emax, [35S]GTPγS binding: relative to dopamine
[4] = target: T1, human dopamine D2long receptor; remark: listed apart in the source
hD2longR [5] = target: T2, hD2longR; details: cited from earlier work
[6] = target: T1, human dopamine D2long receptor; experiment: cell-based; details: CHO-K1, read-out: DMR Emax (%)
D2long receptors = details: read-out: EC50 (DMR); cited from earlier work
[7] = CHO-K1 hD2longR cells pretreated with the agent (PTX, CTX about 20 h; FR900359 2 h; forskolin 1 μM 40 min; EGTA 2 mM in assay buffer)

T1 sequence (P14416 whole entry): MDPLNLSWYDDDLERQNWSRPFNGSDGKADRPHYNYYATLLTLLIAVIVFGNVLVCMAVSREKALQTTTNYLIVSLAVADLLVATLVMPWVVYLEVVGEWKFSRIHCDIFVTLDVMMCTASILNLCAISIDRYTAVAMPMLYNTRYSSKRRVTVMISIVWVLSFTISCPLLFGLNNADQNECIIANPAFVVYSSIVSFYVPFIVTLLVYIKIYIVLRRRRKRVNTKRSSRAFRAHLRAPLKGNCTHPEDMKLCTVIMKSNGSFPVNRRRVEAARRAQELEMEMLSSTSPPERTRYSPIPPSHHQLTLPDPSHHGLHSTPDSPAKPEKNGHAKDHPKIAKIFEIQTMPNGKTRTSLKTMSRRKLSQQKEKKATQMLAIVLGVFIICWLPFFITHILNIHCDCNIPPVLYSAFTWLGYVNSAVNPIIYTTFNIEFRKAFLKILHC
T2 sequence (P14416 whole entry): as above

For `O=C(O)CN(CCOCCOCCN(CC(=O)O)CC(=O)O)CC(=O)O` [EGTA], the “effect on the quinpirole induced DMR response” value (CHO-K1 hD2longR cells; [7]) was “completely abrogated the quinpirole-induced response”.

For `CCN1CCC[C@H]1CNC(=O)c1cc(S(N)(=O)=O)ccc1OC` [S-(−)-sulpiride], the “Hill Slope of inhibition curve” value ([1]; antagonist mode, versus 30 nM quinpirole) was −1.18.

In the case of `O=C(CCCN1CCC(O)(c2ccc(Cl)cc2)CC1)c1ccc(F)cc1` [Haloperidol, haloperidol], the “DMR response in untransfected CHO-K1 cells (off-target activity)” value (“DMR response … (off-target activity)” for short) [2] is reported as “slight negative DMR response”.

For `C/C=C(/C)C(=O)O[C@H]1C(C)=C2[C@H]([C@@H]1OC(=O)CCCCCCC)[C@@](C)(OC(C)=O)C[C@H](OC(=O)CCC)[C@@]1(O)[C@H]2OC(=O)[C@@]1(C)O` [thapsigargin], the “DMR response induced by the agent alone in CHO-K1 hD2longR cells” value (“DMR response induced by the agent alone” for short) (CHO-K1 hD2longR cells) was “rapidly decreasing negative DMR signal”, the “time to plateau of the thapsigargin-induced negative DMR signal” value (CHO-K1 hD2longR cells; EGTA containing assay buffer) was “approximately 15 min” and the “effect on the quinpirole induced DMR response” value (CHO-K1 hD2longR cells; thapsigargin (1 μM or 2 μM, 20 min) in combination with EGTA (2 mM)) was “completely abrogated the quinpirole-induced response”.

In the case of pertussis toxin [PTX], the “DMR response induced by the agent alone” value (CHO-K1 hD2longR cells) is reported as “did not induce a DMR response” and the “effect on the quinpirole induced DMR response” value (CHO-K1 hD2longR cells; [7]) is reported as “concentration-dependent decrease in the DMR response”.

With `C=C[C@@]1(C)CC(=O)[C@]2(O)[C@@]3(C)[C@@H](O)CCC(C)(C)[C@@H]3[C@H](O)[C@H](OC(C)=O)[C@@]2(C)O1` [forskolin] the “effect on the quinpirole induced DMR response” value (CHO-K1 hD2longR cells; [7]) was “increase in quinpirole efficacy”, the “time of minimum of the forskolin DMR signal” value (CHO-K1 hD2longR cells; forskolin alone) was “about 5 min” and the “DMR response induced by the agent alone” value (CHO-K1 hD2longR cells; without quinpirole, thapsigargin in EGTA (2 mM) containing buffer, forskolin 1 μM) was “negative DMR signal”. The “effect on receptor expression ([3H]N-methylspiperone binding)” value (from here on “effect on receptor expression”) (hD2longR [3]; forskolin 1 μM for 40 min) was “did not exhibit a marked effect on the receptor expression” and the “effect on receptor expression” value (hD2longR [3]; forskolin 1 μM for 20 h) was “strong increase in specific radioligand binding”.

For cholera toxin [CTX], the “DMR response induced by the agent alone” value (CHO-K1 hD2longR cells) was “did not induce a DMR response”, the “effect on the quinpirole induced DMR response” value (CHO-K1 hD2longR cells) was “apparent increase in quinpirole efficacy” and the “effect on receptor expression” value (hD2longR [3]) was “slight up-regulation”.

In the case of R-(−)-apomorphine, the “pEC50, [35S]GTPγS binding” value (D2R; ref 42) is given as 7.66, the “pEC50, [35S]GTPγS binding” value (D2R; ref 49) is given as 6.76 and the “Emax, [35S]GTPγS binding” value (D2R; ref 42) is given as 53%. For the same molecule, the “Emax, [35S]GTPγS binding” value (D2R; ref 49) was 90%, the “DMR Emax (%)” value [4] was 102 ± 5% and the “quality of action in the DMR assay (full / partial agonist)” value [4] was “full agonist”. The “β-arrestin2 recruitment Emax (%)” value (hD2longR [5]) was 87 ± 3^a % and the “DMR response … (off-target activity)” value [2] was “did not elicit a DMR signal”.

In the case of `CNc1cc(OC)c(C(=O)NC2CCN(Cc3ccccc3)C2C)cc1Cl` (centres unmarked) [Nemonapride, nemonapride], the “Hill Slope of inhibition curve” value [1] is reported as −1.95 and the “DMR response … (off-target activity)” value [2] is reported as “slight negative DMR response”.

For `C=C1C(=O)N[C@@H](C)C(=O)N(C)[C@@H](C)C(=O)N[C@@H]([C@H](OC(=O)[C@@H](NC(=O)CC)[C@H](O)C(C)C)C(C)C)C(=O)N(C)[C@@H]([C@@H](C)OC)C(=O)O[C@H](C(C)C)[C@H](NC(C)=O)C(=O)O[C@H](Cc2ccccc2)C(=O)N1C` [FR900359] (Ac-[X1][dPhLac][NMeDha]A[NMeA][X1](Leu(3R-OH,Nα-propionyl))[NMeT](Me); ester 1-C), the “DMR response induced by the agent alone” value (CHO-K1 hD2longR cells) was “did not induce a DMR response” and the “effect on the quinpirole induced DMR response” value (CHO-K1 hD2longR cells; [7]) was “did not show a pronounced effect”.

For `CCCN[C@H]1CCc2nc(N)sc2C1` [Pramipexole, pramipexole], the Emax [6] is given as 97 ± 0.1%, the “quality of action in the DMR assay (full / partial agonist)” value [4] is given as “full agonists” and the EC50 (D2long receptors) is given as 8.7 nM.

For `NCCc1ccc(O)c(O)c1` [Dopamine, dopamine], the EC50 (D2long receptors) is listed as 11 nM.
